The subject of series [1] is human monocytic THP-1 cells. The series is described as follows: GaN chipscope monitoring of cell differentiation (cell area and roundness from images). The conditions noted are these: THP-1 monocyte to M0, PMA 25 ng/mL, 3-9 h after stimulation. Format: cell-based. An excerpt: The cell refractive index is an intrinsic optical parameter that varies with different cell phenotypes. This inspired the exploration of whether the sensing platform could track online the dynamics of cell differentiation and distinguish the different cell phenotypes. In this experiment, human monocytic THP-1 cells are employed as the cell model due to their multi-phenotypic characteristics, including the initial suspended monocyte, adhered macrophage (M0), and two major polarized states (adhered M1 and M2). Here, THP-1 cells differentiated from suspended state (monocyte) to adhered M0 state by phorbol 12-myristate 13-acetate (PMA), followed by induction of the resultant M0 cells to polarize to M1 by LPS/FN-gamma. The process is monitored throughout by the GaN chipscope system (FIG. 10a).
Consistent with the photocurrent signal, the imaging system recorded a fast cell rolling behavior in the initial 30 min before the cells settled down (FIG. 10b). PMA (25 ng/mL) is then loaded to trigger monocyte to macrophage differentiation. It is evident from the photocurrent signal that monocytes responded strongly against PMA in 3-9 h after stimulation, and this response became mild in the following 11 h (FIG. 10b).
Phorbol-12-myristate-13-acetate (PMA, MCE, 25 ng/mL) was used to induce monocytes differentiation to M0 macrophages. […]

For another series, the system named is THP-1 cells. The experiment in a line: Flow cytometry of macrophage surface markers CD11b and CD80. The conditions noted are these: THP-1 cells after incubation with PMA. Format: cell-based, human. As to the method: Phorbol-12-myristate-13-acetate (PMA, MCE, 25 ng/mL) was used to induce monocytes differentiation to M0 macrophages. For further polarization, 100 ng/mL lipopolysaccharide (LPS, Thermo) and 20 ng/mL interferon-γ (IFN-γ, Thermo) were added to the culture to induce M1 generation. The cells were stimulated to M0 and M1 macrophages for 24 h. Flow cytometry and immunofluorescence staining were used to assess the expression of macrophage-specific cell surface marker: CD11 b for monocyte/macrophage differentiation and CD 80 for M1 macrophage polarization.
The harvested cells were washed with cold PBS and then the Fc receptor binding sites were blocked by incubating with Human TruStain FcX™ (422302, Biolegned) on ice for 20 min. The cells were then incubated with either FITC labeled CD 11 b (301329, Biolegend) or FITC labeled CD 80 (305206, Biolegend) in darkness for another 30 min. After centrifugation, the cells were washed twice with FACS buffer (PBS containing 2% BSA) and immediately measured by the flow cytometer Novoexpress (Agilent).
A general note: A flow cytometer gives signals particle by particle.

The test system of a further series is NIH 3T3 cells. The series is described as follows: Label-free monitoring of cell adhesion, morphology and intracellular dynamics on the LED/GaN chipscope (photocurrent and DIC imaging). The class given is cell-based. An excerpt:
As a monolithic integration design of the chip, the same shared sapphire substrate can realize the light coupling from the LED to the PD without any external optics, as shown in FIG. 5a. In particular, when the lights emitted from LED reached external media with a low RI (i.e., nmedia<nsapphire), total internal reflection occurred at the sapphire/media interface, causing some light to be reflected into the light-detecting region. The intensity of the reflected light is then detected by the PD. Since the critical angle enlarges as the refractive index increases, less light is reflected back to the PD, resulting in a decrease in the photocurrent. When the cells are in contact with the chip surface, the sensor provides a rapid photocurrent response due to the obvious RI change from sapphire-culture medium (1.78 to 1.337) to sapphire-cells (1.78 to 1.343-1.48). Furthermore, the formation of strong cell-substrate adhesion and/or the evolution of cell morphology could also result in changes in the recorded photocurrent.
NIH 3T3 cells are used in the present study due to their rapid adhesion response and significant cell area changes during spreading. First performed a live/dead assay test to evaluate the potential phototoxicity of the chip to the cells. […] Next, after the chip was stabilized in the incubator at 37° C., the cell suspension was added into the chip chamber. […] Benefitting from the integrated mini-DIC imaging system, we can clearly capture the cell morphology changes in real-time. As shown in the top panel of FIG. 7b, the round cells gradually precipitated onto the chip surface in the first 30 min (step 1), and then started to extend in the next 4 h (step 2). After that, they continued to flatten and formed a dense monolayer sheet covering the entire chip surface (step 3). These observed cell morphology changes closely matched the optical response of the chip, indicating the successful integration of GaN chip-based sensing and DIC imaging units in our system for cellular activity monitoring. Additionally, to mimic the cell detachment process (step 4), we treated the cells with sodium dodecyl sulfate (SDS), a known surfactant that can detach and lyse adhering cells from culture dishes or flasks.
• Cells (NIH 3T3, 0.3 million/mL, 500 uL, 37° C.) were seeded on the LED chip and transferred to the incubator (37° C.). Then the ammeter started to monitor the optical current at specific time points. The control experiment was performed by monitoring the solo cell culture medium with an identical chip (DMEM, 500 uL, 37° C.). • The bright-field images of cells were collected at specific time points to monitor the initial stage of cells adhesion and extension. The cells were cultured on sapphire, the substrate of which was identical with the top layer of LED chips.
3T3 cells were grown on the chip surface for overnight and then were washed once and replaced with HEPES buffer (HBSS). After the system was restabilized, various concentrations of thrombin (MCE) were injected into the cell chamber. The signal dynamics were recorded by a meter.

Series [2] relates to human lung adenocarcinoma cells (A549). The series is described as follows: GaN chipscope drug screening: cytotoxicity of an anticancer drug on an A549 cell monolayer (photocurrent and imaging). Format: cell-based. The conditions noted are these: for decrease of cell confluence: after 24 h incubation. As to the method:
The A549 cells are seeded in the chamber of the platform and cultured for 24 h for fully spreading. Afterward, 10 μM, 30 μM or 50 μM of β-lapachone is added into the chambers, respectively.
Additionally, the photocurrent curves offered valuable practical information for the study of drug-cell interactions. First, by plotting the slope of the tangent line, the speed of cell response at different periods was analyzed. […] Indeed, a higher dose is more toxic and induces faster cell death. Thirdly, by coupling the imaging system, we were able to qualitatively and quantitatively analyze the cell-drug interactions. As shown in FIG. 9b-d, the cells shrank in a dose-dependent manner after β-lapachone treatment. Specifically, cells treated with a lower dose (10 μM) slowly shrank over time, but there is no obvious increase in intercellular spaces during the 24 h. […] It is believed that the increase in photocurrent in higher dose-treated cells is contributed by both cell morphology changes as well as by cell intracellular dynamics alternation. Further, the cell confluency is calculated based on the photos taken by the imaging system.

Series [3] has the same test system. Described as above. The class given is cell-based. The following applies: A549, 5 hours of drug treatment.
The next series concerns intracellular Ca2+. The experiment in a line: Living cell calcium tracking (Fluo-3 fluorescence). Format: cell-based. The conditions noted are these: low-dose thrombin (2 U/mL). As to the method: After the cells were grown on the confocal dish for 24 h, they were washed by PBS and cultured in living cell fluorescence imaging medium (Thermo) with the calcium indicator (Fluo-3, Invitrogen, […]) and pluronic F-127 (0.02%) in incubator for 1 h. They were then washed by fresh culture medium twice and incubated for a further 30 min to allow complete de-esterification of intracellular acetoxymethyl esters. The living cell fluorescent images were then captured by fluorescence microscope (Zeiss) with the frame rate of 1 side/min.

Regarding `CCCCCCCCCCCCCC(=O)O[C@@H]1[C@@H](C)[C@@]2(O)[C@@H](C=C(CO)C[C@]3(O)C(=O)C(C)=C[C@@H]23)[C@@H]2C(C)(C)[C@]12OC(C)=O` [PMA, phorbol 12-myristate 13-acetate], the “increase in cell spreading area” value in series [1] came out at 137%. Also, the “expression of CD11b” value with THP-1 cells is given as “significantly increased”.

For `CCCCCCCCCCCCOS(=O)(=O)[O-].[Na+]` [SDS, sodium dodecyl sulfate], the “rapid increase of photocurrent signal after addition” value with NIH 3T3 cells (3T3 monolayer, cell detachment step) is reported as 4.24%. The “detachment of cell monolayer from chip surface” value with NIH 3T3 cells (3T3 monolayer, within a few seconds of loading) is “completely detached”.

As for `Cc1ccc2c(c1)C(=O)C1(O)CCN(c3ccccc3)C1=N2` (centres unmarked) [blebbistatin], in the series on NIH 3T3 cells (3T3 cells, 50 μM, next 1 h, increased cell gaps and dendritic morphologies), the “cell morphology after treatment (imaging)” value was “gradually shrank”. Also, the “increase of relative optical current compared to the control group” value with NIH 3T3 cells (3T3 cells, blebbistatin 50 μM, treated for 50 min) turned out to be 1.02%.

In the case of `CC1(C)CCC2=C(O1)c1ccccc1C(=O)C2=O` [β-lapachone], the “reaction time of the cells from photocurrent curve” value in series [2] (A549, 10 μM) is listed as 20.2 h; in series [2] (A549, 30 μM), 11.6 h; in series [2] (A549, 50 μM), 12.5 h. Further, in series [2] (A549, 10, 30, 50 μM), the “cytotoxicity in A549 cells (photocurrent increase with drug concentration)” value is recorded as “dose-depend cytotoxicity”. Besides, in series [2] (A549, first 5 h of stimulation), the “speed of cell response (slope of photocurrent curve) at 50 μM relative to 10 μM” value is 6.05 times. The “speed of cell response (slope of photocurrent curve) at 50 μM relative to 30 μM” value in series [2] (A549, first 5 h of stimulation) is listed as 2.85 times. Moreover, the “decrease of cell confluence” value in series [2] (A549, high dose (50 μM)) is on record as 23.1%; in series [2] (A549, low dose (10 μM)), 0%; in series [2] (A549, medium dose (30 μM)) it was 19.0%. Moreover, the “photocurrent response monitored by the LED sensor during drug treatment” value in series [3] is reported as “gradually increased”.

Regarding thrombin, in the series on NIH 3T3 cells (3T3 monolayer, thrombin 150 U/mL), the “time at which photocurrent reached a plateau” value came out at 50 min. Further, the “maximal change (increase) of photocurrent” value with NIH 3T3 cells (3T3 monolayer, thrombin high dose 150 U/mL) is recorded as 1.66%. For the same compound, the “decrease of photocurrent signal” value in the series on NIH 3T3 cells (3T3 monolayer, thrombin low dose 2 U/mL, first 10 min, returned to initial level in next 30 min) came out at 0.94%. Besides, the “calcium fluorescence response of living cells” value in the series with intracellular Ca2+ was “biphasic cell response”.

These data come from patent US20230003644A1, “PHOTONIC CHIP FOR MONITORING ACTIVITIES OF LIVING CELLS” (THE UNIVERSITY OF HONG KONG, priority 2021, published 2023).
